Measured values: PMC6100073, “Activation of Anthracene Endoperoxides in Leishmania and Impairment of Mitochondrial Functions” (Molecules : A Journal of Synthetic Chemistry and Natural …, 2018)
Where two headings read alike, the source gives them in different places.

Columns and labels:
[1] = test system: Leishmania tarentolae promastigotes (LtP); experiment: Resazurin viability assay in Leishmania tarentolae promastigotes; format: cell-based
Method: Leishmania tarentolae promastigotes (LtP) strain P10 from Jena Bioscience (Jena, Germany) were cultivated in brain heart infusion (BHI) medium (37 g/L) that was supplemented with 5 mg/L hemin, 25,000 U/L penicillin and 25 mg/L streptomycin at 26 °C. LtP were always used one day after being passaged, when the cells were in the logarithmic growth phase. The cell count was determined by measuring the optical density (OD) at a wavelength of 600 nm using a U1100 photometer (Hitachi, Tokyo, Japan). The number of the cells was subsequently calculated according to a calibration curve.
LtP (2 × 10^6 cells/mL) in a mixture of YEM and PBS (1:1, v/v) containing 25,000 U/L penicillin, 25 mg/L streptomycin, and 6 µM hemin (YEM/PBS) were prepared. Aliquots of 200 µL of this suspension were distributed in 96-well plates. Control rows containing YEM/PBS (no activity) and with untreated LtP (100% activity) were also loaded on the plate. To the wells of third rows, compounds (leading to a final vehicle concentration of max. 2% dimethyl sulfoxide (DMSO) in the wells) were added. Subsequently, five 1:5 serial dilution steps were performed. The plates were incubated at 26 °C for 48 h. Following the incubation, 50 µL of a resazurin solution in PBS were added to each well, giving a final concentration of 20 µM. After 4 h of incubation, the fluorescence was measured at 560 nm excitation and 590 nm emission using a plate reader (Perkin Elmer Enspire, Germany). The resazurin assays with J774 cells were performed in analogy to the LtP resazurin assays. Aliquots of a J774 cell suspension in DMEM supplemented with 25,000 U/L penicillin, 25 mg/L streptomycin, and 10% FCS (heat-inactivated), giving a final cell concentration of 10^5 cells/mL, were distributed in the wells of the 96-well microplates. The cells were incubated for 24 h (37 °C, 5% CO2) to allow attachment. Then the medium was discarded and non-adherent cells were removed with 200 µL PBS per well. After the addition of DMEM, the compounds were added, and a serial dilution was performed. Control rows with DMEM (no activity) and with untreated J774 cells (100% activity) were also included. The plates were incubated again for 24 h at 37 °C and 5% CO2. Then the addition of resazurin and the measurement of fluorescence were carried out in analogy to the viability assays performed in LtP.
Calculations were carried out using Microsoft Excel (Microsoft). The graphs were created using Origin 6.1 (OriginLab Corporation, Northampton, MA, USA). The half maximal inhibitory concentrations (IC50) were determined from non-linear concentration–response curves using a four-parameter logistic model and expressed as the mean ± standard deviation (SD). Statistically significant differences of p <0.05 were identified using Students t-test.

[2] = test system: LtP; experiment: O2 consumption of LtP (OxoPlates); format: cell-based, Leishmania tarentolae; details: 140 × 10^6 LtP/mL, 40 min; for influence on LtP respiration (oxygen consumption rate): 6.25–200 µM
Method: Oxygen consumption rates of LtP treated with AcEPs were measured using round-bottomed OxoPlates (OP96U, Precision Sensing GmbH, Regensburg, Germany). An aliquot of BHI culture medium was transferred to an open Erlenmeyer flask and was stirred on a magnetic stirrer for 30 min at 25 °C to saturate it with air (aBHI). Another aliquot of BHI culture medium was mixed with approximately 50 mg of the reducing agent sodium dithionite in a tightly closed falcon tube to remove the dissolved oxygen (dBHI). Aliquots of 200 µL of both calibration media were distributed to 6 wells each of the first row of an OxoPlate. To prevent oxygen exchange with the environment, 70 µL of paraffin oil were layered on top of each well containing liquid. The plate was then incubated in the dark for 15 min at 25 °C for equilibration. Then the fluorescence of both calibration media was measured at a microplate reader (Perkin Elmer Enspire, Germany) in a dual kinetic mode using an excitation wavelength of 540 nm for both of the dyes, emission wavelengths of 650 nm for the indicator dye, and 590 nm for the reference dye. The ratio of both intensities (IR) was calculated for each well and averaged giving the two calibration constants k0 or k100. From the second row on, each well was filled with 50 µL of aBHI. The third row was provided with extra 50 µL of aBHI. The respective amounts of the anthracene derivatives (Ac, AQ, AcEP1117, AcEP1118, AcEP1129, AcEP1130) were added and mixed properly. A serial dilution was performed by transferring 50 µL of the mixture in five subsequent 1:2 steps. LtP (140 × 10^6 cells/mL) were suspended in aBHI and aliquots of 150 µL were transferred to each well giving a maximal final concentration of the AcEPs of 200 µM, declining with onward 1:2 dilution steps. On top of each well, 70 µL of paraffin oil was added. The fluorescence intensity of each well was determined in 5 min intervals over 40 min. Each concentration was measured in quadruplicates. The oxygen concentration was calculated using the following equation (PreSens–Precision Sensing GmbH):O2 [µM] = 100 × (k0/IR − 1) / (k0/k100 − 1) × 2.83
The slope of the change of the oxygen concentrations over time was calculated giving the oxygen consumption rate [µM/min] for each well. The value obtained for aBHI was subtracted to eliminate the influence of the medium. The rate was finally normalized to the oxygen consumption rate of the wells that did contain cells but no test compounds.

[3] = Leishmania tarentolae, 48 h, resazurin assay, endpoint at 48 h, 2 × 10^6 LtP/mL, read-out: IC50 (µM) Mean ± SD LtP

| IC50 [1, 3] [µM] | IC50 ([1]; Leishmania tarentolae, 48 h, read-out: IC50 (µM) Mean ± SD LtP, resazurin assay, endpoint at 48 h, 2 × 10^6 LtP/mL) [µM] | IC50 ([1]; resazurin assay, endpoint at 48 h, 2 × 10^6 LtP/mL, read-out: IC50 (µM) Mean ± SD LtP) [µM] | Structure (SMILES) | influence on LtP respiration (oxygen consumption rate) [2] | concentration from which oxygen consumption is significantly decreased ([2]; p < 0.05 vs 0 µM) [µM] |
| --- | --- | --- | --- | --- | --- |
| – | > 400 | – | c1ccc2cc3ccccc3cc2c1 [Ac, anthracene] | no considerable influence on the LtP respiration up to concentrations of 200 µM | – |
| 5.72 ± 1.92 | – | – | c1ccc2c(c1)C1OOC2c2ccccc21 [AcEP1117, 9,10-dihydro-9,10-epidioxidoanthracene] | no considerable influence on the LtP respiration up to concentrations of 200 µM | – |
| 1 ± 0.73 | – | – | CC12OOC(C)(c3ccccc31)c1ccccc12 [AcEP1118, 9,10-dimethyl-9,10-dihydro-9,10-epidioxidoanthracene] | no considerable influence on the LtP respiration up to concentrations of 200 µM | – |
| 0.22 ± 0.09 | – | – | CCc1ccc2c(c1)C1OOC2c2ccccc21 (stereo not drawn) [AcEP1130, 2-ethyl-9,10-dihydro-9,10-epidioxidoanthracene] | significant decline in the oxygen consumption rate at higher concentrations | – |
| < 1 | – | 0.84 ± 0.43 | N=C(N)c1ccc(OCCCCCOc2ccc(C(=N)N)cc2)cc1 [Pen, pentamidine, reference compound] | – | – |

| Structure (SMILES) | IC50 [1, 3] [µM] | IC50 ([1]; Leishmania tarentolae, 48 h, read-out: IC50 (µM) Mean ± SD LtP, resazurin assay, endpoint at 48 h, 2 × 10^6 LtP/mL) [µM] | IC50 ([1]; resazurin assay, endpoint at 48 h, 2 × 10^6 LtP/mL, read-out: IC50 (µM) Mean ± SD LtP) [µM] | influence on LtP respiration (oxygen consumption rate) [2] | concentration from which oxygen consumption is significantly decreased ([2]; p < 0.05 vs 0 µM) [µM] |
| --- | --- | --- | --- | --- | --- |
| O=C1c2ccccc2C(=O)c2ccccc21 [AQ, anthraquinone, reference compound] | 103 ± 17.8 | – | – | no considerable influence on the LtP respiration up to concentrations of 200 µM | – |
| CC12OOC(c3ccccc31)c1ccccc12 [AcEP1129, 9-methyl-9,10-dihydro-9,10-epidioxidoanthracene] | 0.61 ± 0.21 | – | – | significant decline in the oxygen consumption rate at higher concentrations | 25 |
